EP4592276A1, “NOVEL ACY[…] OF PSILOCIN AND RELATED 4-HYDROXYT[…] BY AN EFFICIENT […] APPROACH” (Universität Heidelberg, priority 2024, dated 2025)
Structures can show the parent of a compound that is named as a salt. Marks after values point to notes of the source that are not given here.

Key:
[1] = Passive membrane permeation assay (PAMPA); assay type: in vitro ADME; conditions: pre-coated PAMPA plate, PBS pH 7.4, 200 µM, 25 °C; for R (mass retention) / Pe: 5 h; for Papp at 5 h, 200 µM / Pe: mean ± standard deviation; for Papp at 5 h, 200 µM: read-out: Pe
Experimental: The passive membrane permeability was evaluated with a pre-coated PAMPA plate system (BD Gentest, BD Bioscience, Germany) following the guidelines of the manufacturer and a previous literature report (cf. Kühl et al. Eur. J. Med. Chem. 2022, 240, 114585). Phosphate-buffered saline (PBS) pH 7.4 (Sigma-Aldrich, Germany) was used for all experiments. Analyte concentrations were determined on a Jasco HPLC system equipped with a UV detector and an RP-18 column (Chromolith® Performance RP-18e, 100x4.6 mm) using one of the gradients listed in Table 2. For all samples, the injection volume was 40 µl. Table 2: HPLC settings for the analysis of PAMPA samples.
Prior to performing the assay, the PAMPA plate was warmed to room temperature for 0.5 h. In the donor plate, 300 µL of the 200 µM compound solutions in PBS (4 % dimethyl sulfoxide (DMSO)) were dispensed in triplicate, and in the acceptor plate, 200 µL of PBS buffer were added to all wells. The plates were combined, and the system was incubated at 25 °C for 5 h. Upon completion of the incubation, donor and acceptor plate were separated. The wells were homogeneously mixed with a pipette, and a 100 µl sample of each donor and acceptor well was transferred to 96 well U-bottom polypropylene plates (Greiner Bio-One, Germany) for quantitative HPLC analysis.

[2] = test system: HuH-7 cells; test: Cell viability in HuH-7 cells (CellTiter-Blue); assay type: cell-based, human; conditions: for Cell Viability in HuH7 at 50 µM, 2 h Incubation / Cell Viability in HuH7 at 50 µM, 24 h Incubation: mean of triplicates ± standard deviation; for toxicity for HuH-7 cells: result in words
Experimental: In order to assess cytotoxic effects of compounds in cell culture, HuH-7 cells were incubated in presence of these compounds in a 96-well plate for 2 h or 24 h. In order to generate a calibration curve for cell viability, a serial dilution (1:2 dilution series) of cells was seeded into control wells. Measurement of cell viability is based on the assay development using CellTiter-Blue reagent (Resazurin, blue color), which is reduced to resofurin (pink color) by viable cells.
Prior to performing the assay, a 96-well assay plate (F-bottom, transparent, Greiner) containing HuH-7 cells (20,000 cells per well) in culture medium was prepared. […] CellTiter-Blue reagent (1-2 mL) was diluted with cell culture medium (10 mL) in a Falcon tube and prewarmed to 37 °C. The 96-well plate was removed from the incubator, the medium aspirated using a vacuum pump and 100 µL of diluted CellTiter-Blue reagent was added to each well.

[3] = Prodrug stability in human whole saliva; assay type: in vitro ADME; conditions: mean of fresh samples of three individuals, classified into three groups; for half-life at 50 µM: 37 °C
Experimental: Freshly collected saliva and 5 mM stock solutions of the analytes in DMSO were prewarmed to 37 °C for 10 min. Then, 700 µl prewarmed saliva was added to 7 µl of the prodrug stock, and the mixture was incubated at 37 °C. Samples (100 µL) were taken at selected time points (0, 10, 20, 40, 60 min; 2 h or 24 h) and immediately quenched with acetonitrile (200 µl). Blank samples were prepared by mixing saliva (100 µl) with acetonitrile (200 µl). Centrifugation (3,000 rpm, 5 min) of the quenched samples afforded clear supernatants which were transferred to 96 well U-bottom polypropylene plates (Greiner Bio-One, Germany). Analyte quantifications were performed on a Jasco HPLC system equipped with a UV detector and an RP-18 column (Chromolith® Performance RP-18e, 100x4.6 mm) using the gradients listed in Table 4. Samples that gave rise to asymmetric peaks inadequate for quantification were diluted (1:1) with H2O (+0.1 % TFA). The injection volume was 40 µl and the flow was set to 1.0 mL/min. UV detection was performed at 286 nm. […] Table 4: HPLC settings for quantitative analysis of saliva samples.

[4] = Drug release kinetics (prodrug cleavage) in human blood plasma; assay type: in vitro ADME; conditions: for half-life: 10 % human plasma in PBS, 50 µM; for half-life / half-life at 50 µM: 37 °C; for t1/2 at 37 °C and [prodrug]0 = 50 µM, 100 % Human Plasma / half-life at 50 µM: 100 % human plasma
Experimental: Pooled human blood plasma (Biowest, France) and sterile Dulbecco's phosphate buffered saline (PBS) pH 7.3 (Sigma-Aldrich, Germany) were used for all experiments. The blood plasma was aliquoted upon receipt and stored at -20 °C. 10 % solutions were prepared by thawing a plasma aliquot at 2-8 °C, distributing it into plastic vials and diluting with the appropriate volume of sterile PBS. The 10 % and 100 % plasma aliquots were stored at -20 °C and thawed at 2-8 °C directly before the assay was performed. In a thermoblock, a plasma aliquot and 10 µl of a 5 mM prodrug solution in DMSO were prewarmed to 37 °C for 10 min in separate plastic vials. Then, 1000 µl of the prewarmed plasma sample was added to the prodrug solution, and 9×100 µl samples were withdrawn at appropriate time intervals. The enzymatic reaction was quenched by immediate mixing of the samples (100 µl) with acetonitrile (200 µl). Blank samples were prepared by mixing 10 % or 100 % plasma (100 µl) with acetonitrile (200 µl), respectively. Samples of the initial reaction mixture were prepared by adding the 5 mM prodrug solution (1 µl) to a blank sample.
Centrifugation (13,000 rpm, 3 min) of the quenched samples afforded clear supernatants which were transferred to 96 well U-bottom polypropylene plates (Greiner Bio-One, Germany). Analyte quantifications were performed on a Jasco HPLC system equipped with a UV detector and an RP-18 column (Chromolith® Performance RP-18e, 100x4.6 mm) using one of the gradients listed in Table 3. Prodrug degradation was monitored using undiluted supernatant and a 10 min chromatographic method. […] For all samples, the injection volume was 40 µL and the flow was set to 1.0 mL/min. […] Table 3: HPLC settings for quantitative analysis of plasma samples.

[5] = 100 % pooled human blood plasma

| SMILES | R (mass retention) [1] | Papp at 5 h, 200 µM [1] | Cell Viability in HuH7 at 50 µM, 2 h Incubation [2] | Cell Viability in HuH7 at 50 µM, 24 h Incubation [2] | also measured |
| --- | --- | --- | --- | --- | --- |
| O=C1NC(=O)C(c2ccccc2)(c2ccccc2)N1 [Phenytoin, reference compound] | 57% | 7.5 ± 1 ×10⁻⁶ cm/s | 122.9 ± 1.7% | 84.2 ± 2.7% | – |
| CCN(C)CCc1c[nH]c2cccc(OC(=O)C(C)C)c12 [Compound 8d, 4-iso-Butyryloxy-N-ethyl-N-methyltryptammonium fumarate] | 4% | 9.5 ± 0.7 ×10⁻⁶ cm/s | 91.4 ± 3.7% | 82.1 ± 2.3% | Pe [1]: at least 8 10^-6 cm/s; half-life at 50 µM [3]: 15 to 60 min; half-life [4]: 0.44 ± 0.03 min |
| CCN(C)CCc1c[nH]c2cccc(OC(=O)c3ccco3)c12.CCN(C)CCc1c[nH]c2cccc(OC(=O)c3ccco3)c12.O=C(O)/C=C/C(=O)O [Compound 8j, 4-(2-Furoyl)oxy-N-ethyl-N-methyltryptammonium fumarate] | – | – | 89.6 ± 3.4% | 78.0 ± 2.0% | t1/2 at 37 °C and [prodrug]0 = 50 µM, Human Saliva [3]: 15 to 60 min; t1/2 at 37 °C and [prodrug]0 = 50 µM, 100 % Human Plasma [4]: 0.14 ± 0.01 min |
| CCN(C)CCc1c[nH]c2cccc(OC(=O)C3CC3)c12.CCN(C)CCc1c[nH]c2cccc(OC(=O)C3CC3)c12.O=C(O)/C=C/C(=O)O [Compound 8e, 4-(Cyclopropanecarbonyloxy)-N-ethyl-N-methyltryptammonium fumarate] | – | – | 101.2 ± 3.1% | 81.7 ± 2.0% | t1/2 at 37 °C and [prodrug]0 = 50 µM, Human Saliva [3]: > 60 min; t1/2 at 37 °C and [prodrug]0 = 50 µM, 100 % Human Plasma [4]: 0.84 ± 0.11^c min |
| CCN(C)CCc1c[nH]c2cccc(OC(=O)C(C)(C)C)c12 [Compound 8f, 4-Pivaloyloxy-N-ethyl-N-methyltryptammonium fumarate] | -2% | 10.7 ± 0.7 ×10⁻⁶ cm/s | 80.4 ± 2.1% | 79.4 ± 2.1% | half-life at 50 µM [3]: > 60 min; t1/2 at 37 °C and [prodrug]0 = 50 µM, Human Saliva [3]: > 60 min; half-life at 50 µM [4]: > 0.0417 days |
| CN(C)CCc1cn(C(=O)OCc2ccccc2)c2cccc(O)c12 [Compound 10, 1-Benzyloxycarbonyl-4-hydroxy-N,N-dimethyltryptamine] | – | – | 0.1 ± 0.2% | -1.3 ± 0.1% | toxicity for HuH-7 cells [2]: extremely toxic; half-life at 50 µM [4, 5]: > 3.96 days |
| CCN(C)CCc1cn(C(=O)OCc2ccccc2)c2cccc(O)c12 [Compound 11, 1-Benzyloxycarbonyl-4-hydroxy-N-ethyl-N-methyltryptamine] | – | – | 0.1 ± 0.2% | -2.1 ± 0.1% | toxicity for HuH-7 cells [2]: extremely toxic; half-life at 50 µM [4, 5]: > 3.96 days |
| NS(=O)(=O)c1cc(C(=O)O)c(NCc2ccco2)cc1Cl [Furosemide, reference compound] | – | – | 121.9 ± 13.8% | 90.7 ± 1.1% | Pe [1]: -0.4 ± 0.3^c 10^-6 cm/s |
| CN(C)CCCN1c2ccccc2CCc2ccccc21 [Imipramine HCl, reference compound] | – | – | 91.1 ± 3.7% | 24.4 ± 5.3% | – |
| CC(=O)Oc1ccccc1C(=O)O [Acetylsalicylic acid, reference compound] | – | – | 92.9 ± 3.3% | 83.8 ± 3.8% | half-life at 50 µM ([3]; both sexes): > 60 min |
| Cn1c(=O)c2c(ncn2C)n(C)c1=O [Caffeine, reference compound] | 1% | 12.8 ± 0.9 ×10⁻⁶ cm/s | – | – | – |
| CCN(C)CCc1c[nH]c2cccc(OC(=O)CC(C)C)c12 [Compound 8g, 4-(3-Methylbutanoyl)oxy-N-ethyl-N-methyltryptammonium fumarate] | 2% | 10.6 ± 0.8 ×10⁻⁶ cm/s | 81.7 ± 8.6% | 79.8 ± 4.6% | half-life [4]: > 8 min |
| CCCC(=O)OCOc1cccc2[nH]cc(CCN(C)CC)c12 [Compound 15d, 4-n-Butanoyloxymethyloxy-N-ethyl-N-methyltryptammonium fumarate] | 6% | – | 85.4 ± 2.7% | 80.6 ± 3.3% | Pe [1]: 8.0 ± 0.3 10^-6 cm/s; half-life at 50 µM [3]: < 15 min |
| CCN(C)CCc1c[nH]c2cccc(OC(=O)c3ccccc3)c12 [Compound 8i, 4-Benzoyloxy-N-ethyl-N-methyltryptammonium fumarate] | 6% | 9.4 ± 0.8 ×10⁻⁶ cm/s | 95.0 ± 3.8% | 80.1 ± 1.7% | half-life at 50 µM [3]: 15 to 60 min; half-life [4]: 1.5 ± 0.5 min |
| CCN(C)CCc1c[nH]c2cccc(OC(=O)CC(C)(C)C)c12 [Compound 8h, 4-(tert-Butylacetyl)oxy-N-ethyl-N-methyltryptammonium fumarate] | 1% | 11.2 ± 0.8 ×10⁻⁶ cm/s | 28.7 ± 1.1% | 42.3 ± 25.9% | half-life [4]: > 8 min |
| CCN(C)CCc1c[nH]c2cccc(O)c12 [4-OH-MET fumarate 17, 4-Hydroxy-N-ethyl-N-methyltryptammonium fumarate, reference compound] | 29% | 11 ± 1 ×10⁻⁶ cm/s | 91.0 ± 1.7% | 82.9 ± 1.3% | – |
| CN(C)CCc1c[nH]c2cccc(O)c12 [Psilocin 1, 4-Hydroxy-N,N-dimethyltryptamine, reference compound] | – | – | 93.7 ± 6.3% | 72.5 ± 8.3% | – |
| CCCC(=O)OCOc1cccc2[nH]cc(CCN(C)C)c12 [Compound 15b, 4-n-Butanoyloxymethyloxy-N,N-dimethyltryptammonium fumarate] | 7^b % | – | 90.0 ± 5.2% | 79.3 ± 3.5% | Pe [1]: 8.1 ± 0.8^b 10^-6 cm/s; half-life at 50 µM [3]: < 15 min |
